Data: PubChem BioAssay (NCI)
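Method: 48-hour compound exposure of cells in 96-well plates, five concentrations, linear interpolation of endpoints. GI50 is the concentration that inhibits growth by half. At the TGI there is no net growth.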

Key:
Test in all cases: NCI anticancer screen, dose series, 48 h
[1] = tested on: NCI-H226 lung
[2] = tested on: OVCAR-4 ovarian
[3] = tested on: BT-549 breast
[4] = tested on: COLO 205 colon
[5] = tested on: DU-145 prostate
[6] = tested on: HCT-15 colon
[7] = tested on: KM12 colon
[8] = tested on: NCI-H23 lung
[9] = tested on: SK-MEL-2 melanoma
[10] = tested on: SK-MEL-5 melanoma
[11] = tested on: SK-OV-3 ovarian
[12] = tested on: UACC-257 melanoma
[13] = tested on: UACC-62 melanoma
[14] = tested on: 786-0 renal
[15] = tested on: A498 renal
[16] = tested on: A549 NSCLC
[17] = tested on: ACHN renal
[18] = tested on: CAKI-1 renal
[19] = tested on: EKVX NSCLC
[20] = tested on: HCC-2998 colon
[21] = tested on: HCT-116 colon
[22] = tested on: HL-60(TB) leukemia
[23] = tested on: HOP-62 NSCLC
[24] = tested on: HOP-92 NSCLC
[25] = tested on: HT29 colon
[26] = tested on: IGROV1 ovarian
[27] = tested on: K-562 leukemia
[28] = tested on: LOX IMVI melanoma
[29] = tested on: M14 melanoma
[30] = tested on: MALME-3M melanoma
[31] = tested on: MCF7 breast
[32] = tested on: MDA-MB-231 breast
[33] = tested on: MDA-MB-435
[34] = tested on: MOLT-4 leukemia
[35] = tested on: NCI-H460 lung
[36] = tested on: NCI-H522 lung
[37] = tested on: NCI/ADR-RES ovarian
[38] = tested on: OVCAR-3 ovarian
[39] = tested on: OVCAR-5 ovarian
[40] = tested on: OVCAR-8 ovarian
[41] = tested on: PC-3 prostate
[42] = tested on: RXF 393 renal
[43] = tested on: SF-268 CNS
[44] = tested on: SF-295 CNS
[45] = tested on: SF-539 CNS
[46] = tested on: SK-MEL-28 melanoma
[47] = tested on: SN12C renal
[48] = tested on: SNB-19 CNS
[49] = tested on: SNB-75 CNS
[50] = tested on: SR leukemia
[51] = tested on: SW-620 colon
[52] = tested on: T-47D breast
[53] = tested on: TK-10 renal
[54] = tested on: U251 CNS
[55] = tested on: UO-31 renal

## C#CC[C@@H]1C[C@]2(C)[C@H]3CC[C@@H]4[C@H]5C(C(=C)C)CC[C@]5(C(=O)NCCN(CCN)CCN)CC[C@@]4(C)[C@]3(C)CC[C@H]2C(C)(C)[C@H]1OC(C)=O (stereo not given in full)
[1]
  GI50: 2060 nM
  TGI: 4690 nM
[2]
  GI50: 2350 nM
  TGI: 5320 nM

## COc1cc(/C=C2\C[C@H]3[C@@H]4CCc5cc(OCCN6CCCC6)ccc5[C@H]4CC[C@]3(C)C2=O)cc(OC)c1OC
[3]
  TGI: > 100000 nM
[4]
  TGI: 2810 nM
[5]
  TGI: 3560 nM
[6]
  TGI: 3770 nM
[7]
  TGI: 3360 nM
[8]
  TGI: 7400 nM
[9]
  TGI: 5340 nM
[10]
  TGI: 2860 nM
[11]
  TGI: 8300 nM
[12]
  TGI: 4890 nM
[13]
  TGI: 7220 nM

## CCCCCOc1ccc(/C=N/Nc2cc(C)nc3ccc(Cl)cc23)cc1
[14]
  GI50: 1780 nM
  TGI: 3320 nM
[15]
  GI50: 1190 nM
  TGI: 2470 nM
[16]
  GI50: 1900 nM
  TGI: 3520 nM
[17]
  GI50: 1750 nM
  TGI: 3130 nM
[3]
  GI50: 1740 nM
  TGI: 3280 nM
[18]
  GI50: 1640 nM
  TGI: 3030 nM
[4]
  GI50: 1890 nM
  TGI: 3610 nM
[5]
  GI50: 1880 nM
  TGI: 3700 nM
[19]
  GI50: 1670 nM
  TGI: 3070 nM
[20]
  GI50: 1950 nM
  TGI: 3540 nM
[21]
  GI50: 1040 nM
  TGI: 2290 nM
[6]
  GI50: 1430 nM
  TGI: 2840 nM
[22]
  GI50: 1640 nM
  TGI: 3360 nM
[23]
  GI50: 1620 nM
  TGI: 3290 nM
[24]
  GI50: 1470 nM
  TGI: 2960 nM
[25]
  GI50: 1440 nM
  TGI: 2810 nM
[26]
  GI50: 1910 nM
  TGI: 3600 nM
[27]
  GI50: 691 nM
  TGI: 2270 nM
[7]
  GI50: 1790 nM
  TGI: 3410 nM
[28]
  GI50: 1690 nM
  TGI: 3150 nM
[29]
  GI50: 1760 nM
  TGI: 3230 nM
[30]
  GI50: 1850 nM
  TGI: 3390 nM
[31]
  GI50: 1640 nM
  TGI: 3400 nM
[32]
  GI50: 1710 nM
  TGI: 3230 nM
[33]
  GI50: 1750 nM
  TGI: 3210 nM
[34]
  GI50: 1650 nM
  TGI: 3360 nM
[1]
  GI50: 1640 nM
  TGI: 3680 nM
[8]
  GI50: 1780 nM
  TGI: 3470 nM
[35]
  GI50: 1950 nM
  TGI: 3960 nM
[36]
  GI50: 1630 nM
  TGI: 3080 nM
[37]
  GI50: 1890 nM
  TGI: 3920 nM
[38]
  GI50: 1970 nM
  TGI: 3580 nM
[2]
  GI50: 1720 nM
  TGI: 3220 nM
[39]
  GI50: 1820 nM
  TGI: 3230 nM
[40]
  GI50: 1980 nM
  TGI: 4230 nM
[41]
  GI50: 1610 nM
  TGI: 3100 nM
[42]
  GI50: 1630 nM
  TGI: 3080 nM
[43]
  GI50: 2230 nM
  TGI: 4460 nM
[44]
  GI50: 1770 nM
  TGI: 3340 nM
[45]
  GI50: 1860 nM
  TGI: 3300 nM
[9]
  GI50: 1700 nM
  TGI: 3170 nM
[46]
  GI50: 1690 nM
  TGI: 3090 nM
[10]
  GI50: 1630 nM
  TGI: 3010 nM
[11]
  GI50: 1650 nM
  TGI: 3080 nM
[47]
  GI50: 1710 nM
  TGI: 3220 nM
[48]
  GI50: 1870 nM
  TGI: 3410 nM
[49]
  GI50: 1630 nM
  TGI: 3220 nM
[50]
  GI50: 369 nM
  TGI: 1730 nM
[51]
  GI50: 1730 nM
  TGI: 3530 nM
[52]
  GI50: 1760 nM
  TGI: 3710 nM
[53]
  GI50: 1770 nM
  TGI: 3160 nM
[54]
  GI50: 1700 nM
  TGI: 3160 nM
[12]
  GI50: 1720 nM
  TGI: 3270 nM
[13]
  GI50: 1680 nM
  TGI: 3150 nM
[55]
  GI50: 1560 nM
  TGI: 2930 nM
